Our source for the fluorescence lifetime values is the Deep4Chem optical property database.

A short description of the data set: solvent given as SMILES.
Where [1] appears, read: in O=P(c1ccccc1)(c1ccccc1)c1ccccc1Oc1ccccc1P(=O)(c1ccccc1)c1ccccc1.

Structures are written as SMILES. Values joined by “and” are separate entries in the source; they are usually repeats but may differ in a detail not shown here. Identical values can stand only once.

`COC(=O)CC1(C(=O)O)Oc2c(c(C(C)=O)c3c(c2C(C)=O)OCO3)O1` came in with a fluorescence lifetime (in CC#N) of 20 ns.
Consider `Cc1nn(-c2ccccc2)c(C2=NN(c3ccc(Br)cc3)[C@@H](c3ccccc3)[C@@H]2c2ccccc2)c1C#N`, for which the fluorescence lifetime (in C1CCCCC1) turned out to be 4.73 ns; the fluorescence lifetime (in C1CCOC1) stood at 5.04 ns; the fluorescence lifetime (in C1COCCO1) was determined as 5.21 ns; the fluorescence lifetime (in CC#N) is 5.05 ns; the fluorescence lifetime (in CCCCCCC) stood at 4.64 ns; the fluorescence lifetime (in CCO) turned out to be 4.53 ns. The fluorescence lifetime by setting is: (in CN(C)C=O) 4.95 ns; (in CO) 3.74 ns; (in O) 2.6 ns; (in OCCO) 3.59 ns.
For the setting “in CC#N”, `Fc1ccc(/C=C/c2nc3c4ccccc4c4ccccc4c3o2)cc1` registered a fluorescence lifetime of 1.88 ns.
`c1ccc2c(c1)CCc1ccccc1N2c1c2ccccc2c(N2c3ccccc3CCc3ccccc32)c2ccccc12` had a fluorescence lifetime (in Cc1ccccc1) of 34 ns.
Take `CC(C)(C)c1ccc2c(c1)c1cc(C(C)(C)C)ccc1n2-c1ccc(C#Cc2ccc3c4ccc(C#Cc5ccc(C=O)cc5)cc4n(-c4ccc(C(F)(F)F)cc4)c3c2)cc1`: the fluorescence lifetime (in ClCCl) came to 0.84 ns.
Still for that read-out and setting: the figure for `COc1ccc2cc(C#N)c(=N)oc2c1` is 2.5 ns.
As to `CCN(CC)c1ccc2c(-c3ccccc3C(=O)[O-])c3ccc(=[N+](CC)CC)cc-3oc2c1`, the fluorescence lifetime is 1.74 ns (in CC#N); 3.26 ns (in CC(C)O); 3.42 ns (in CCCCCCCCO); 3.41 ns (in CCCCCCO); 3.37 ns (in CCCCO); 3.27 ns (in CCCO). Besides, the fluorescence lifetime runs as follows: (in CCO) 2.96 ns; (in CN(C)C=O) 2.33 ns; (in CO) 2.5 ns and 2.46 ns; (in O) 1.74 ns and 1.75 ns; (in [2H]O[2H]) 1.84 ns.
In the case of `COc1cc2c(cc1-c1ccc(N(C)C)cc1)Cc1c3c(c4c(c1-2)-c1cc(OC)c(-c2ccc(N(C)C)cc2)cc1C4)C(=O)N(CCC(C)C)C3=O`, where the note is “in C1CCOC1”, the fluorescence lifetime was 1.01 ns.
Under “in ClCCl”, `O=[N+]([O-])c1ccc([N+]2=Cc3ccc4ccccc4c3O[B-]2(F)F)cc1` showed a fluorescence lifetime of 7.6 ns.
`c1ccc(-c2cc(-c3ccc(N4c5ccccc5C(c5ccccc5)(c5ccccc5)c5ccccc54)cn3)nc(-c3ccccc3)n2)cc1`: the fluorescence lifetime under setting [1] worked out at 13.3 ns.
Turning to `CCOC(=O)CN1C(=O)C2=C(c3ccc(C#N)cc3)N(CC(=O)OCC)C(=O)C2=C1c1ccc(C#N)cc1`, the fluorescence lifetime runs as follows: (in CC#N) 6.67 ns; (in CS(C)=O) 6.5 ns; (in Cc1ccccc1) 6.48 ns.
For the compound `CN(C)c1ccc(C2=Cc3cc(Cl)nc[n+]3[B-](F)(F)O2)cc1`, the fluorescence lifetime runs as follows: (in C1CCOC1) 2.6 ns; (in CC#N) 0.3 ns; (in CCCCCC) 1.9 ns; (in Cc1ccccc1) 2.3 ns; (in ClC(Cl)Cl) 2.5 ns; (in ClCCl) 2.8 ns.
`F[B-]1(F)n2c(c3c(c2-c2ccccc2)C2C=CC3CC2)C(c2ccccc2)=C2C3=C(C(c4ccccc4)=[N+]21)C1C=CC3CC1` (stereo not given) showed a fluorescence lifetime (in ClCCl) of 6.1 ns.
`N#C/C(=C\c1ccc(C#N)cc1)c1nc(-c2ccc(Cl)cc2)cs1` displayed a fluorescence lifetime (in CC#N) of 2.85 ns.
Consider `CCCCCCCCC1(CCCCCCCC)c2ccccc2-c2ccc(N(c3ccc(-n4c5ccccc5c5ccccc54)cc3)c3ccc4c(c3)C(CCCCCCCC)(CCCCCCCC)c3ccccc3-4)cc21`, for which the fluorescence lifetime by setting is: (in C1CCOC1) 1.8 ns; (in CC#N) 1.8 ns; (in CC(C)=O) 1.75 ns; (in CCCCCC) 1.68 ns; (in CCCCOCCCC) 1.78 ns; (in CCN(CC)CC) 1.69 ns. Moreover, the fluorescence lifetime runs as follows: (in CCOC(C)=O) 1.66 ns; (in CCOCC) 1.97 ns; (in CN(C)C=O) 1.87 ns; (in Cc1ccccc1) 1.75 ns; (in ClCCl) 1.62 ns.
The compound `CCCCn1c2ccc(C#N)cc2c2cc(C#N)cc(-c3ccc(N(c4ccccc4)c4ccccc4)cc3)c21` registered a fluorescence lifetime (in ClCCl) of 1.91 ns.
As to `CCCCCCCCOc1ccc2c3cccc4c(OCCCCCCCC)ccc(c5cccc1c52)c43`, the fluorescence lifetime by setting is: (in C1CCOC1) 3.88 ns; (in Cc1ccccc1) 3.65 ns; (in ClC(Cl)(Cl)Cl) 3.82 ns; (in ClC(Cl)Cl) 3.77 ns; (in ClCCl) 4.17 ns; (in c1ccncc1) 4.01 ns.
With `CCN(CC)c1ccc(/C=N/Nc2ccc(C#N)cc2)c(O)c1`, the fluorescence lifetime (in CO) was determined as 1.63 ns.
On to `CCN(CC)c1ccc2c(c1)oc(=O)c1cc3cnn(-c4ccccc4)c3nc12`, for which the fluorescence lifetime (in ClCCl) was determined as 16.9 ns.
`CN(C)c1ccc2c(-c3ccc(C(=O)[O-])cc3C(=O)[O-])c3ccc(=[N+](C)C)cc-3oc2c1` gave a fluorescence lifetime (in CCO) of 3.26 ns and a fluorescence lifetime (in O) of 2.44 ns.
In turn, `CC(=O)c1ccc(-c2cc(C)[o+]c(C)c2)cc1` yielded a fluorescence lifetime (in ClCCl) of 2 ns.
Take `COc1cccc2c1C(=O)c1ccccc1-2`: the fluorescence lifetime came to 2.1 ns (in CC#N); 8.52 ns (in CC(C)O); 7.27 ns (in CCCCO); 6.93 ns (in CCCO); 5.98 ns (in CCO); 3.82 ns (in CO).
On to `O=C1OC(=O)c2ccc(N(c3ccccc3)c3c4ccccc4cc4ccccc34)c3cccc1c23`, for which the fluorescence lifetime came to 0.64 ns (in C1CCOC1), 5.4 ns (in CCCCCC) and 2.14 ns (in c1ccccc1).
In the case of `c1ccc(-c2nc(-c3ccc(-c4ccc(-c5nc(-c6ccccc6)c(-c6ccccc6)o5)cc4)cc3)oc2-c2ccccc2)cc1`, the fluorescence lifetime (in C1COCCO1) turned out to be 0.95 ns.
Consider `c1ccc2c(-c3cc(-c4nccs4)nc(-c4nccs4)c3)c3ccccc3cc2c1`, for which the fluorescence lifetime reads like this: (in CC#N) 2.32 ns; (in CCCCCC) 3.31 ns; (in CO) 2.5 ns; (in ClC(Cl)Cl) 2.34 ns.
`N#Cc1ccc(C=C(c2ccccc2)c2ccccc2)cc1` yielded a fluorescence lifetime (in C1CCOC1) of 31 ns.
Regarding `O=[N+]([O-])c1ccc(O)c(-c2nc3c(c4c2-c2ccccc2CC4)-c2ccccc2CC3)c1`, the fluorescence lifetime (in ClCCl) was determined as 0.45 ns.
On the same count and under the same terms, the figure for `CCOC(=O)/N=c1/oc2cc(N(CC)CC)ccc2cc1C#N` is 3.6 ns.
`CCCCN1C(=O)c2ccc3c4ccc5c6c(ccc(c7ccc(c2c37)C1=O)c64)C(=O)N(CCCC)C5=O`: the fluorescence lifetime (in ClC(Cl)Cl) is 3.8 ns.
In turn, `Fc1c(F)c(-n2c3ccccc3c3ccccc32)c(F)c(F)c1-c1nnc(-c2ccccc2)o1` displayed a fluorescence lifetime (in Cc1ccccc1) of 6.7 ns.
In the case of `COc1ccc(/C=C/c2ccccc2)cc1OC`, the fluorescence lifetime (in CC#N) worked out at 0.5 ns.
`CCCCCCOc1ccc(N(c2ccc(OCCCCCC)cc2)c2ccc(-c3sc(-c4ccc(N(c5ccc(OCCCCCC)cc5)c5ccc(OCCCCCC)cc5)cc4)c4nc(-c5ccc(C(=O)OC)cc5)c(-c5ccc(C(=O)OC)cc5)nc34)cc2)cc1`: the fluorescence lifetime amounted to 0.61 ns (in CN(C)C=O) and 0.58 ns (in ClC(Cl)Cl).
For the setting “in ClCCl”, `Cc1nc(-c2cc(C(F)(F)F)ccc2O)n2c1CCCC2` yielded a fluorescence lifetime of 3.7 ns.
Regarding `N#Cc1c(-n2c3ccccc3c3ccccc32)cccc1-n1c2ccccc2c2ccccc21`, the fluorescence lifetime by setting is: (in Cc1ccccc1) 2.6 ns; under setting [1], 4 ns.
For the compound `N#Cc1cc2ccccc2[nH]1`, the fluorescence lifetime runs as follows: (in C1CCOC1) 2.9 ns; (in C1COCCO1) 2.9 ns; (in CC#N) 0.9 ns; (in CS(C)=O) 0.4 ns.
The compound `C[N+]1=c2ccc3c(c2C(C)(C)CC1)Oc1cc2c(cc1C=3c1ccccc1C(=O)O)C(c1ccccc1C(=O)O)=c1ccc3c(c1O2)C(C)(C)CC[N+]=3C` registered a fluorescence lifetime (in ClC(Cl)Cl) of 2.48 ns.
Turning to `COC(=O)/C(C#N)=c1\s/c(=c2/s/c(=C(/C#N)C(=O)OC)c3cc(-c4ccc(C(F)(F)F)cc4)sc23)c2sc(-c3ccc(C(F)(F)F)cc3)cc12`, the fluorescence lifetime (in Cc1ccccc1) amounted to 2.32 ns.
As to `CNc1cccc2c1C(=O)c1ccccc1C2=O`, the fluorescence lifetime turned out to be 0.446 ns (in C1CCC2CCCCC2C1); 0.443 ns (in C1CCCCC1); 0.445 ns (in CC1CCCCC1); 0.204 ns (in CC#N); 0.444 ns (in CCC(C)CC); 0.451 ns (in CCCCCC). The fluorescence lifetime (in CCOC(C)=O) came out at 0.253 ns.
On to `CN(C)c1ccc2c(c1)C(=O)c1ccccc1-2`, for which the fluorescence lifetime was 3.3 ns (in C1CCCCC1) and 0.79 ns (in c1ccccc1).
Consider `CC(=O)OC[C@H]1O[C@@H](OCC#Cc2ccc(C3=C4C(C)=CC(/C=C/c5ccc([N+](C)(C)C)cc5)=[N+]4[B-](F)(F)n4c(/C=C/c5ccc([N+](C)(C)C)cc5)cc(C)c43)cc2)[C@H](OC(C)=O)C(OC(C)=O)[C@@H]1OC(C)=O` (stereo not given in full), for which the fluorescence lifetime (in CC#N) was 5.4 ns.
Compound `COc1ccc(C#Cc2ccc(C#Cc3ccc(P(=O)(c4ccc(C#Cc5ccc(C#Cc6ccc(OC)cc6)cc5)cc4)c4ccc(C#Cc5ccc(C#Cc6ccc(OC)cc6)cc5)cc4)cc3)cc2)cc1` showed a fluorescence lifetime (in C1CCCCC1) of 0.58 ns; a fluorescence lifetime (in C1COCCO1) of 0.69 ns; a fluorescence lifetime (in CC#N) of 1.14 ns; a fluorescence lifetime (in CCO) of 1.02 ns; a fluorescence lifetime (in CS(C)=O) of 1.24 ns; a fluorescence lifetime (in ClC(Cl)Cl) of 0.74 ns. Moreover, the fluorescence lifetime (in ClCCl) was 0.85 ns.
Regarding `CCCCCCCCN1C(=O)c2ccc3c4c(-c5ccc6c7ccccc7n(-c7ccccc7)c6c5)cc5c6c(cc(-c7ccc8c9ccccc9n(-c9ccccc9)c8c7)c(c7ccc(c2c37)C1=O)c64)C(=O)N(CCCCCCCC)C5=O`, where the note is “in ClC(Cl)Cl”, the fluorescence lifetime stood at 13.2 ns.
As to `O=C1c2ccc(-c3ccc(N(c4ccccc4)c4ccccc4)cc3)cc2C(=O)c2ccc(-c3ccc(N(c4ccccc4)c4ccccc4)cc3)cc21`, the fluorescence lifetime reads like this: (in Cc1ccccc1) 9 ns; (in c1ccc2c(c1)c1ccccc1n2-c1ccc(-c2ccc(-n3c4ccccc4c4ccccc43)cc2)cc1) 10.2 ns.
With `c1ccc2c(c1)CCc1ccccc1N2c1c2ccccc2cc2ccccc12`, the fluorescence lifetime (in Cc1ccccc1) came to 41 ns.
